The values that follow come from patent US8138148B2, “GDNF derived peptides” (Copenhagen University, priority 2005, dated 2012).

The experiment relates to dopaminergic neurons. As to the kind of experiment: Survival assay, dopaminergic neurons (6-OHDA). The experiment is classed as cell-based, Wistar rat. As to conditions: 100 μM 6-OHDA for two hours, further 24 hours with peptide. On the procedure:
Dopaminergic neurons were prepared from Wistar rat embryos at embryonic day 15 (Charles River, Sulzfeld, Germany or Møllegaard, Denmark). A pregnant rat was sacrificed and the uterus was taken out and kept on ice in Hank's balanced salt solution (HBSS; Gibco, BRL). The ventral part of the mesencephalon was dissected from the embryonic brains, homogenised on ice in Gey's balanced salt solution (GBSS; Gibco, BRL) supplemented with 5 g glucose/l (Sigma-Aldrich) and thereafter trypsinised. The dissociated cells were washed in the presence of DNAse 1 and soybean trypsin inhibitor (Sigma-Aldrich).
Dopaminergic neurons were seeded at a density of 150,000 cells/cm^2 in 24-well cell culture plates coated with poly-D-lysine as described above. The neurons were left to differentiate for six days without or with various concentrations of peptide, after which 6-OHDA was added at a concentration of 100 μM for two hours. A stock solution was prepared by dissolving 6-OHDAto a concentration of 10 mM in 0.1% (w/v) sodium metabisulphite in order to prevent oxidation. After two hours with 6-OHDA, the medium was changed to Neurobasal medium with supplements and peptide, and the cell cultures were further incubated for 24 hours, fixed and immunostained for tyrosine hydroxylase. 98 images for each experimental condition in each individual experiment were automatically video-recorded.

For “ETTYDKILKNLSRNR (listed as Homo sapiens) [G2, GDNF fragment]”, the “survival of dopaminergic neurons” value was “increases the survival of dopaminergic neurons”.
